Broadly, the IC50 is the midpoint of a concentration-inhibition curve.

In this assay the target is Tyrosine-protein kinase BTK (Homo sapiens, UniProt Q06187). The assay can be described thus: Inhibition of BTK in human whole blood assessed as decrease in CD69 positive cells. In kind it is cell-based.
Chain of Tyrosine-protein kinase BTK (Q06187 whole entry): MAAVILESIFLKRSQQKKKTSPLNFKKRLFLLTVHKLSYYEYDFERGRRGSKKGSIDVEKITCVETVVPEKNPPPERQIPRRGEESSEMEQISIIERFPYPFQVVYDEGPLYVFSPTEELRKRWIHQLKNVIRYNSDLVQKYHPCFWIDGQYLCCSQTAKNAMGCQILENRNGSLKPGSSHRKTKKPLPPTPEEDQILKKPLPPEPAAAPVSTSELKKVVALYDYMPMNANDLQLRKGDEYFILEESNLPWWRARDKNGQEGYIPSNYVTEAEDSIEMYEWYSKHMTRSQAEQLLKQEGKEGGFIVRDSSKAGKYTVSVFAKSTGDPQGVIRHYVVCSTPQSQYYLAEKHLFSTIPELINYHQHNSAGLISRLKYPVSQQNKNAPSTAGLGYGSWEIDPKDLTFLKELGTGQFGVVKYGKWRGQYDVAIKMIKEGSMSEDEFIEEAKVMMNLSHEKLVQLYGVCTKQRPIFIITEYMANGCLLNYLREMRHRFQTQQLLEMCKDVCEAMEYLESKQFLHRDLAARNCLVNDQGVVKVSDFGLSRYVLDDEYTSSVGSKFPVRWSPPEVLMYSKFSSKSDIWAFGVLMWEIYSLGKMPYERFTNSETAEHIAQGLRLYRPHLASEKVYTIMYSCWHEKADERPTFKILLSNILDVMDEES

As for `CN(C)c1ccc2c(c1)CCN(c1cc(F)cc(-c3cc(Nc4ccc(N5CCOCC5)cn4)c(=O)n(C)c3)c1CO)C2=O`, the IC50 was 200 nM.
The result for `CN(C)c1ccc2c(c1)CCN(c1cccc(-c3cc(Nc4ccc(N5CCOCC5)cn4)c(=O)n(C)c3)c1CO)C2=O` reads 190 nM; that for `CCNC(=O)Nc1cc(-c2cccc(N3CCc4cc(N(C)C)ccc4C3=O)c2CO)cn(C)c1=O`, 1600 nM; that for `CN1CCN(c2ccc(Nc3cc(-c4cccc(N5CCc6cc(C(C)(C)C#N)ccc6C5=O)c4CO)cn(C)c3=O)nc2)CC1`, 60 nM.
Consider `CN(C)c1ccc2c(=O)n(-c3cccc(-c4cc(Nc5ccc(C(=O)N6CCOCC6)cn5)c(=O)n(C)c4)c3CO)ccc2c1`, for which the IC50 was determined as 280 nM.
The result for `CNC(=O)Nc1cc(-c2ccc(F)c(N3CCc4cc(N(C)C)ccc4C3=O)c2CO)cn(C)c1=O` reads 3700 nM.

Values taken from ChEMBL document CHEMBL3351914, “Finding the perfect spot for fluorine: improving potency up to 40-fold during a rational fluorine scan of a Bruton's Tyrosine Kinase (BTK) inhibitor scaffold” (Bioorg Med Chem Lett, 2015).
